Assay results taken from patent publication US12595254B2, “Crystal form of Resmetirom, preparation method therefor, and use thereof” (CRYSTAL PHARMACEUTICAL (SUZHOU) CO., LTD., priority 2020, dated 2026).
Values after ≈ are worked out from the molar mass of the structure shown. “Also recorded” adds a separate entry of the source. Like-named read-outs stand apart in the source and are kept apart here. Values belong to the compound of their own block, whether it stands above or below them.

How the values were obtained:
[1] = Adhesiveness (amount sticking to the punch); assay type: physicochemical; details: 30 mg, Φ8 mm tooling, 10 KN held for 30 s
Procedure: 30 mg of Form CSVI and Form I in the prior art were weighed and then added into the dies of Φ8 mm round tooling, compressed at 10 KN and held for 30 s. The punch was weighed and amount of material sticking to the punch was calculated. The maximum amount and average amount of material sticking to the punch during the compression were recorded.

[2] = Flowability (compressibility index); assay type: physicochemical
Procedure: Compressibility index is usually utilized to evaluate the flowability of powder or granules during the drug product process. Compressibility index test method is as follows: a certain amount of powder was added into a measuring cylinder and bulk volume was recorded. Then the powder was tapped to make it in the tightest state and the tapped volume was recorded.
The bulk density (ρ0), tapped density (ρf) were calculated and compressibility index was calculated according to c=(ρf−π0)/ρf.

[3] = Pressure stability (tableting, XRPD); assay type: physicochemical
Procedure: ENERPAC manual tablet press was used for compression. 20 mg of Form CSVI were compressed into tablets under different pressures with the dies of a 16 mm round tooling. Crystalline form before and after tableting were checked by XRPD.

[4] = Compressibility (tensile strength of compressed tablet); assay type: physicochemical; details: for Diameter / Hardness / Thickness / Tensile strength: 80 mg compressed at 10 KN; for Diameter / Hardness / Thickness: after 24 h at room temperature; for Tensile strength: T=2H/πDL
Procedure: ENERPAC manual tablet press was used for compression. 80 mg of Form CSVI and Form I in the prior art were weighed and added into the dies of a 16 mm round tooling, compressed at 10 KN manually, then stored at room temperature for 24 h until complete elastic recovery, diameter (D) and thickness (L) were tested with caliper. Hardness (H) was tested with an intelligent tablet hardness tester. Tensile strength of the powder was calculated with the following formula: T=2H/πDL. Under a certain force, the greater the tensile strength, the better the compressibility.

[5] = Physicochemical stability of drug substance on storage (XRPD, HPLC); details: for Chemical purity during storage / Time for which crystalline state doesn't change / kept stable: open and sealed package
Procedure: An appropriate amount of Form CSVI were stored under different conditions of 25° C./60% RH and 40° C./75% RH. Crystalline form and chemical purity were checked by XRPD and HPLC, respectively.

[6] = Solubility in simulated gastric fluid (SGF), HPLC; assay type: physicochemical
Procedure: When solubility test is used to predict the in vivo performance of a drug, it is critical to simulate in vivo conditions as closely as possible. Simulated gastric fluid (SGF) can be used to simulate the condition in vivo and predict the effects of eating, thus solubility in this medium is closer to that in vivo. 15 mg of Form CSVI was suspended into 2.0 mL of SGF. After equilibrated for 1 h at 37° C., concentrations of the saturated solutions were measured by HPLC.

[7] = Hygroscopicity by dynamic vapor sorption (DVS); assay type: physicochemical; details: for Weight gain: DVS
Procedure: Dynamic Vapor Sorption (DVS) was measured via an SMS (Surface Measurement Systems Ltd.) intrinsic DVS instrument. The instrument control software is DVS-Intrinsic control software. Typical Parameters for DVS test are as follows: • Temperature: 25° C. • Gas and flow rate: N2, 200 mL/min • RH range: 0% RH to 95% RH
Dynamic vapor sorption (DVS) analyzer was applied to evaluate the hygroscopicity of Form CSVI and Form I in the prior art with an appropriate amount. The weight gains at each relative humidity were recorded in a cycle of 0-95%-0 RH.

[8] = Stability of crystalline form in drug product process; assay type: physicochemical; details: XRPD, tablet per Tables 11 and 12
Text: The formulation and preparation process of Form CSVI are shown in Table 11 and Table 12, respectively.

Grinding stability = assay type: physicochemical; details: ground manually in a mortar
Procedure: Solid sample of Form CSVI was ground manually for 5 minutes in a mortar.

Average amount sticking to the punch [1]: 0.05 mg | Maximum amount sticking to the punch [1]: 0.10 mg | Stability under different pressures (in words) ([3]; 3, 7, 14 kN): good stability under different pressures | Solid form after tableting ([3]; Pressure 3 kN): Form CSVI | Solid form after tableting ([3]; Pressure 7 kN): Form CSVI | Solid form after tableting ([3]; Pressure 14 kN): Form CSVI | Compressibility (in words) [4]: better compressibility | Diameter [4]: 6.06 mm | Hardness [4]: 13.4 N | Thickness [4]: 2.05 mm | Tensile strength [4]: 0.69 MPa | Purity ([5]; 25° C./60% RH Open, 6 months): 99.73% | Solid Form ([5]; 25° C./60% RH Open, 6 months): Form CSVI | Purity ([5]; 25° C./60% RH Sealed, 6 months): 99.74% | Solid Form ([5]; 25° C./60% RH Sealed, 6 months): Form CSVI | Chemical purity during storage ([5]; 25° C./60% RH): above 99.7% | Time for which crystalline state doesn't change / kept stable ([5]; 25° C./60% RH): at least 6 months | Purity ([5]; 40° C./75% RH Open, 6 months): 99.73% | Solid Form ([5]; 40° C./75% RH Open, 6 months): Form CSVI | Purity ([5]; 40° C./75% RH Sealed, 6 months): 99.73% | Solid Form ([5]; 40° C./75% RH Sealed, 6 months): Form CSVI | Chemical purity during storage ([5]; 40° C./75% RH): above 99.7% | Time for which crystalline state doesn't change / kept stable ([5]; 40° C./75% RH): at least 6 months | Purity ([5]; Initial): 99.73% | Solid Form ([5]; Initial): Form CSVI | Solubility of Form CSVI relative to Form I in the prior art ([6]; SGF, 1 h): about 2 times | solubility at 1 h ([6]; simulated gastric fluid (SGF), simulated gastric fluid, thermodynamic from solid, SGF, equilibrated for 1 h at 37° C.): 2.1 µg/mL (≈ 4.83 µM) | Weight gain ([7]; 25° C./80% RH): 0.07% | Crystal form after DVS test ([7]; XRPD before and after DVS): does not change | Hygroscopicity (in words) ([7]; from weight gain at 25° C./80% RH): non or almost non hygroscopic | Crystalline form before and after the formulation process [8]: remained stable
SMILES: CC(C)c1cc(Oc2c(Cl)cc(-n3nc(C#N)c(=O)[nH]c3=O)cc2Cl)n[nH]c1=O [Form CSVI, 2-(3,5-dichloro-4-((5-isopropyl-6-oxo-1,6-dihydropyridazin-3-yl)oxy)phenyl)-3,5-dioxo-2,3,4,5-tetrahydro-1,2,4-triazine-6-carbonitrile]
Flowability compared with Form I in the prior art [2]: superior to that of Form I in the prior art | Grinding stability (in words) (Grinding stability): remained stable; also recorded: doesn't change after grinding

Average amount sticking to the punch [1]: 0.25 mg | Maximum amount sticking to the punch [1]: 0.30 mg | Flowability ([2]; class by compressibility index, ICH Q4B Annex 13): very poor | Diameter [4]: 6.06 mm | Hardness [4]: 7.4 N | Thickness [4]: 2.12 mm | Tensile strength [4]: 0.37 MPa | Compressibility (in words) ([4]; listed as crystalline form I): poor compressibility | Solubility (in words) ([6]; inventors' evaluation of repeated Form I): low solubility | Weight gain of Form I relative to Form CSVI ([7]; 25° C./80% RH): about 2 times | Weight gain ([7]; 25° C./80% RH): 0.13%
SMILES: CC(C)c1cc(Oc2c(Cl)cc(-n3nc(C#N)c(=O)[nH]c3=O)cc2Cl)n[nH]c1=O [Form I in the prior art, 2-(3,5-dichloro-4-((5-isopropyl-6-oxo-1,6-dihydropyridazin-3-yl)oxy)phenyl)-3,5-dioxo-2,3,4,5-tetrahydro-1,2,4-triazine-6-carbonitrile, reference compound]
Grinding stability (in words) (Grinding stability; listed as crystalline form I): most of the crystalline form I transform to amorphous after grinding

Hygroscopicity (in words) ([7]; according to WO2020010068A1 and the inventors' experimental study, conditions not given): high hygroscopicity
SMILES: CC(C)c1cc(Oc2c(Cl)cc(-n3nc(C#N)c(=O)[nH]c3=O)cc2Cl)n[nH]c1=O [crystalline form F, reference compound]
